Assays:
Type in all cases: cell-based
K. pneumoniae 329633 = assay: Broth microdilution MIC (strain enzymes: SHV-5, TEM-1)
K. pneumoniae 11/23 LF#2 = assay: microbe, parasite or virus in culture
K. pneumoniae ESBL 10 = assay: Broth microdilution MIC (strain enzymes: SHV-12, TEM-1)
K. pneumoniae ESBL 8 #1 = assay: Broth microdilution MIC (strain enzymes: TEM-1, SHV-12)
K. pneumoniae KP 4 = assay: Broth microdilution MIC (strain enzymes: SHV-2a, SHV-5, TEM-1)
K. pneumoniae KPN 508 = assay: Broth microdilution MIC (strain enzymes: SHV-7, TEM-1)

SMILES: CCC(=O)N[C@H]1Cc2cccc(C(=O)O)c2OB1O [Compound 2, (R)-2-hydroxy-3-propionamido-3,4-dihydro-2H-benzo[e][1,2]oxaborinine-8-carboxylic acid]
- MIC of cefixime (CFM) (K. pneumoniae 329633; with inhibitor at 2 μg/mL): 0.5 µg/mL
- MIC of ceftibuten (CTB) (K. pneumoniae 329633; with inhibitor at 2 μg/mL): 0.06 µg/mL
- MIC of cefalexin (LEX) (K. pneumoniae 329633; with inhibitor at 4 μg/mL): 1 µg/mL
- MIC of cefdinir (CDR) (K. pneumoniae 329633; with inhibitor at 4 μg/mL): 1 µg/mL
- MIC of cefixime (CFM) (K. pneumoniae 329633; with inhibitor at 4 μg/mL): 0.5 µg/mL
- MIC of ceftibuten (CTB) (K. pneumoniae 329633; with inhibitor at 4 μg/mL): 0.06 µg/mL
- MIC of cefalexin (LEX) (K. pneumoniae 11/23 LF#2; with inhibitor at 1 μg/mL): 0.25 µg/mL
- MIC of cefdinir (CDR) (K. pneumoniae 11/23 LF#2; with inhibitor at 1 μg/mL): 0.25 µg/mL
- MIC of cefixime (CFM) (K. pneumoniae 11/23 LF#2; with inhibitor at 1 μg/mL): 4 µg/mL
- MIC of ceftibuten (CTB) (K. pneumoniae 11/23 LF#2; with inhibitor at 1 μg/mL): 0.25 µg/mL
- MIC of cefalexin (LEX) (K. pneumoniae 11/23 LF#2; with inhibitor at 2 μg/mL): 0.5 µg/mL
- MIC of cefdinir (CDR) (K. pneumoniae 11/23 LF#2; with inhibitor at 2 μg/mL): 0.5 µg/mL
- MIC of cefixime (CFM) (K. pneumoniae 11/23 LF#2; with inhibitor at 2 μg/mL): 2 µg/mL
- MIC of ceftibuten (CTB) (K. pneumoniae 11/23 LF#2; with inhibitor at 2 μg/mL): 0.25 µg/mL
- MIC of cefalexin (LEX) (K. pneumoniae 11/23 LF#2; with inhibitor at 4 μg/mL): 0.25 µg/mL
- MIC of cefdinir (CDR) (K. pneumoniae 11/23 LF#2; with inhibitor at 4 μg/mL): 0.25 µg/mL
- MIC of cefixime (CFM) (K. pneumoniae 11/23 LF#2; with inhibitor at 4 μg/mL): 1 µg/mL
- MIC of ceftibuten (CTB) (K. pneumoniae 11/23 LF#2; with inhibitor at 4 μg/mL): 0.125 µg/mL
- MIC of cefalexin (LEX) (K. pneumoniae ESBL 10; with inhibitor at 1 μg/mL): 1 µg/mL
- MIC of cefdinir (CDR) (K. pneumoniae ESBL 10; with inhibitor at 1 μg/mL): 1 µg/mL
- MIC of cefixime (CFM) (K. pneumoniae ESBL 10; with inhibitor at 1 μg/mL): 2 µg/mL
- MIC of ceftibuten (CTB) (K. pneumoniae ESBL 10; with inhibitor at 1 μg/mL): 0.25 µg/mL
- MIC of cefalexin (LEX) (K. pneumoniae ESBL 10; with inhibitor at 2 μg/mL): 1 µg/mL
- MIC of cefdinir (CDR) (K. pneumoniae ESBL 10; with inhibitor at 2 μg/mL): 1 µg/mL
- MIC of cefixime (CFM) (K. pneumoniae ESBL 10; with inhibitor at 2 μg/mL): 1 µg/mL
- MIC of ceftibuten (CTB) (K. pneumoniae ESBL 10; with inhibitor at 2 μg/mL): 0.25 µg/mL
- MIC of cefalexin (LEX) (K. pneumoniae ESBL 10; with inhibitor at 4 μg/mL): 0.5 µg/mL
- MIC of cefdinir (CDR) (K. pneumoniae ESBL 10; with inhibitor at 4 μg/mL): 0.5 µg/mL
- MIC of cefixime (CFM) (K. pneumoniae ESBL 10; with inhibitor at 4 μg/mL): 0.5 µg/mL
- MIC of ceftibuten (CTB) (K. pneumoniae ESBL 10; with inhibitor at 4 μg/mL): 0.25 µg/mL
- MIC of cefalexin (LEX) (K. pneumoniae ESBL 8 #1; with inhibitor at 1 μg/mL): 0.25 µg/mL
- MIC of cefdinir (CDR) (K. pneumoniae ESBL 8 #1; with inhibitor at 1 μg/mL): 0.25 µg/mL
- MIC of cefixime (CFM) (K. pneumoniae ESBL 8 #1; with inhibitor at 1 μg/mL): 2 µg/mL
- MIC of ceftibuten (CTB) (K. pneumoniae ESBL 8 #1; with inhibitor at 1 μg/mL): 0.25 µg/mL
- MIC of cefalexin (LEX) (K. pneumoniae ESBL 8 #1; with inhibitor at 2 μg/mL): 0.125 µg/mL
- MIC of cefdinir (CDR) (K. pneumoniae ESBL 8 #1; with inhibitor at 2 μg/mL): 0.125 µg/mL
- MIC of cefixime (CFM) (K. pneumoniae ESBL 8 #1; with inhibitor at 2 μg/mL): 0.5 µg/mL
- MIC of ceftibuten (CTB) (K. pneumoniae ESBL 8 #1; with inhibitor at 2 μg/mL): 0.125 µg/mL
- MIC of cefalexin (LEX) (K. pneumoniae ESBL 8 #1; with inhibitor at 4 μg/mL): 0.25 µg/mL
- MIC of cefdinir (CDR) (K. pneumoniae ESBL 8 #1; with inhibitor at 4 μg/mL): 0.25 µg/mL
- MIC of cefixime (CFM) (K. pneumoniae ESBL 8 #1; with inhibitor at 4 μg/mL): 0.25 µg/mL
- MIC of ceftibuten (CTB) (K. pneumoniae ESBL 8 #1; with inhibitor at 4 μg/mL): 0.06 µg/mL
- MIC of cefalexin (LEX) (K. pneumoniae KP 4; with inhibitor at 1 μg/mL): 0.5 µg/mL
- MIC of cefdinir (CDR) (K. pneumoniae KP 4; with inhibitor at 1 μg/mL): 0.5 µg/mL
- MIC of cefixime (CFM) (K. pneumoniae KP 4; with inhibitor at 1 μg/mL): 2 µg/mL
- MIC of ceftibuten (CTB) (K. pneumoniae KP 4; with inhibitor at 1 μg/mL): 0.25 µg/mL
- MIC of cefalexin (LEX) (K. pneumoniae KP 4; with inhibitor at 2 μg/mL): 0.5 µg/mL
- MIC of cefdinir (CDR) (K. pneumoniae KP 4; with inhibitor at 2 μg/mL): 0.5 µg/mL
- MIC of cefixime (CFM) (K. pneumoniae KP 4; with inhibitor at 2 μg/mL): 0.5 µg/mL
- MIC of ceftibuten (CTB) (K. pneumoniae KP 4; with inhibitor at 2 μg/mL): 0.125 µg/mL
- MIC of cefalexin (LEX) (K. pneumoniae KP 4; with inhibitor at 4 μg/mL): 0.125 µg/mL
- MIC of cefdinir (CDR) (K. pneumoniae KP 4; with inhibitor at 4 μg/mL): 0.125 µg/mL
- MIC of cefixime (CFM) (K. pneumoniae KP 4; with inhibitor at 4 μg/mL): 0.25 µg/mL
- MIC of ceftibuten (CTB) (K. pneumoniae KP 4; with inhibitor at 4 μg/mL): 0.125 µg/mL
- MIC of cefalexin (LEX) (K. pneumoniae KPN 508; with inhibitor at 1 μg/mL): 0.5 µg/mL
- MIC of cefdinir (CDR) (K. pneumoniae KPN 508; with inhibitor at 1 μg/mL): 0.5 µg/mL
- MIC of cefixime (CFM) (K. pneumoniae KPN 508; with inhibitor at 1 μg/mL): 4 µg/mL
- MIC of ceftibuten (CTB) (K. pneumoniae KPN 508; with inhibitor at 1 μg/mL): 0.125 µg/mL
- MIC of cefalexin (LEX) (K. pneumoniae KPN 508; with inhibitor at 2 μg/mL): 0.25 µg/mL
- MIC of cefdinir (CDR) (K. pneumoniae KPN 508; with inhibitor at 2 μg/mL): 0.25 µg/mL
- MIC of cefixime (CFM) (K. pneumoniae KPN 508; with inhibitor at 2 μg/mL): 1 µg/mL
- MIC of ceftibuten (CTB) (K. pneumoniae KPN 508; with inhibitor at 2 μg/mL): 0.125 µg/mL
- MIC of cefalexin (LEX) (K. pneumoniae KPN 508; with inhibitor at 4 μg/mL): 0.5 µg/mL
- MIC of cefdinir (CDR) (K. pneumoniae KPN 508; with inhibitor at 4 μg/mL): 0.5 µg/mL
- MIC of cefixime (CFM) (K. pneumoniae KPN 508; with inhibitor at 4 μg/mL): 0.5 µg/mL
- MIC of ceftibuten (CTB) (K. pneumoniae KPN 508; with inhibitor at 4 μg/mL): 0.06 µg/mL

Source: patent US12544395B2, “Combination compositions comprising a beta-lactamase inhibitor and uses thereof” (priority 2018, dated 2026)
